According to PMC7316778 (Nature Communications, 2020):
“And” between values parts separate entries of the source, which are not always exact repeats. Identical values can stand only once. Like-named read-outs stand apart in the source and are kept apart here.

Legend:
[1] = biological target: PTK2 (FAK) (Homo sapiens, UniProt Q05397); assay: SelectScreen kinase assay
Method: (§1) Selectivity profiling assays were performed by the Invitrogen SelectScreen™ Services. […] The concentration of ATP was selected to be equal to the KM, unless indicated otherwise.

[2] = biological target: PI4KA (PI4K alpha) (Homo sapiens, UniProt P42356); assay: SelectScreen kinase assay
Method: as §1

[3] = biological target: PHKG1 (Homo sapiens, UniProt Q16816); assay: SelectScreen kinase assay; details: 1 h, 1 μM WEL028, 1 h preincubation
Method: as §1

[4] = tested on: panel of 380 wild-type, mammalian kinases; assay: SelectScreen selectivity profiling, whole panel; type: biochemical
Method: Supplementary Figure 4. Single-point selectivity screen of WEL028 on a panel of 380 kinases. All data were obtained from SelectScreen™ selectivity profiling service. Assays were performed at 1 μM WEL028 with 1 h preincubation. The ATP concentration was equal to the kinase K M, except for those indicated († = LanthaScreen technology, no ATP; * = 100 µM ATP; ** = 10 µM ATP). Values represent mean percentage inhibition compared to vehicle -treated control (n = 2). […]
inhibition from minimum (0%, white) to maximum (100%, red). Source data are provided as a Source

[5] = biological target: PIK3CG (p110 gamma) (Homo sapiens, UniProt P48736); assay: SelectScreen kinase assay
Chain of PIK3CG (p110 gamma) (P48736 whole entry): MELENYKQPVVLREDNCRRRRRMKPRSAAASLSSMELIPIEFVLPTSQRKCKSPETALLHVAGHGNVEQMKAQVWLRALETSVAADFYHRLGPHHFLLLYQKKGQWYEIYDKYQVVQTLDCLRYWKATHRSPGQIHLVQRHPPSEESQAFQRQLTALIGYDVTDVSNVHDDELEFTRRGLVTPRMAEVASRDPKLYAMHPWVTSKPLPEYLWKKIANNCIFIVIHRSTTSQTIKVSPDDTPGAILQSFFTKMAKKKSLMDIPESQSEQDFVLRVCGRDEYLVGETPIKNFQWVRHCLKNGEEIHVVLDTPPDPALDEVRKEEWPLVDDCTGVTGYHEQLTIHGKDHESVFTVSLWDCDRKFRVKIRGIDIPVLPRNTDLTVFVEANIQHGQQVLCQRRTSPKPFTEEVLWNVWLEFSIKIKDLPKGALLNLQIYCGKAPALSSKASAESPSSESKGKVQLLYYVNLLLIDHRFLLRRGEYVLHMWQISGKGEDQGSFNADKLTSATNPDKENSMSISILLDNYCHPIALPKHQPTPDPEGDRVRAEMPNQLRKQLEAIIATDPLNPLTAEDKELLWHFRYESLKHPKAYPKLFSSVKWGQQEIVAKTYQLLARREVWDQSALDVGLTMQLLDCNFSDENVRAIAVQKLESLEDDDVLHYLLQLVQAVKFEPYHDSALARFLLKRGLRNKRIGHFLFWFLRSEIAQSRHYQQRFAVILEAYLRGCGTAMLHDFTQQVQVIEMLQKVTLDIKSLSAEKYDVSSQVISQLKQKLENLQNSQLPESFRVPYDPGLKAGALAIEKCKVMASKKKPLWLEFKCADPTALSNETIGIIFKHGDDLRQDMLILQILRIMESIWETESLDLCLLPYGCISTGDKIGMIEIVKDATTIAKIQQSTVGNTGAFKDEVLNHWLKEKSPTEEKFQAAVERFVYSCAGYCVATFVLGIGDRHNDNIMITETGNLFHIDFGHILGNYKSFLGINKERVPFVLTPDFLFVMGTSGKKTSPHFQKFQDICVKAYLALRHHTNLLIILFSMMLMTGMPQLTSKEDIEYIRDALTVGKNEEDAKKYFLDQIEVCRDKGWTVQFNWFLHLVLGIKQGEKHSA
Method: as §1

[6] = biological target: RPS6KB1 (p70S6K) (Homo sapiens, UniProt P23443); assay: SelectScreen kinase assay
Method: as §1

[7] = biological target: PRKCQ (PKC theta) (Homo sapiens, UniProt Q04759); assay: SelectScreen kinase assay; details: 1 h, 1 μM WEL028, 1 h preincubation
Method: as §1

[8] = biological target: MST4 (Homo sapiens, UniProt Q9P289); assay: SelectScreen kinase assay
Method: as §1

[9] = biological target: EPHA1 (Homo sapiens, UniProt P21709); assay: SelectScreen kinase assay
Method: as §1

[10] = biological target: T1, MYLK4 (Homo sapiens, UniProt Q86YV6); assay: SelectScreen kinase assay
T1 sequence (Q86YV6 1-388): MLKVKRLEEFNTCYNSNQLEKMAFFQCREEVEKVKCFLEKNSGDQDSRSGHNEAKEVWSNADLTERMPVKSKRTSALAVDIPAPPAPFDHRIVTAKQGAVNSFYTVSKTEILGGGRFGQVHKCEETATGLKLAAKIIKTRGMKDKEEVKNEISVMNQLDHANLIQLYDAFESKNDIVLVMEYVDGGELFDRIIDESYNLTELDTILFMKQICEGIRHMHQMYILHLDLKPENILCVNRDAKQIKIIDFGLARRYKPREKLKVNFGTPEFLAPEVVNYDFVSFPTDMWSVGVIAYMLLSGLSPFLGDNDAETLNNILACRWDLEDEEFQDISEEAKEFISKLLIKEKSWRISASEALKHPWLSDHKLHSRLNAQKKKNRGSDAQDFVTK
Method: as §1

[11] = biological target: RIPK2 (Homo sapiens, UniProt O43353); assay: SelectScreen kinase assay
Method: as §1

[12] = biological target: CDK16 (PCTK1)/cyclin Y (Homo sapiens, UniProt Q00536); assay: SelectScreen kinase assay
Method: as §1

[13] = biological target: PAK2 (PAK65) (Homo sapiens, UniProt Q13177); assay: SelectScreen kinase assay
Chain of PAK2 (PAK65) (Q13177 whole entry): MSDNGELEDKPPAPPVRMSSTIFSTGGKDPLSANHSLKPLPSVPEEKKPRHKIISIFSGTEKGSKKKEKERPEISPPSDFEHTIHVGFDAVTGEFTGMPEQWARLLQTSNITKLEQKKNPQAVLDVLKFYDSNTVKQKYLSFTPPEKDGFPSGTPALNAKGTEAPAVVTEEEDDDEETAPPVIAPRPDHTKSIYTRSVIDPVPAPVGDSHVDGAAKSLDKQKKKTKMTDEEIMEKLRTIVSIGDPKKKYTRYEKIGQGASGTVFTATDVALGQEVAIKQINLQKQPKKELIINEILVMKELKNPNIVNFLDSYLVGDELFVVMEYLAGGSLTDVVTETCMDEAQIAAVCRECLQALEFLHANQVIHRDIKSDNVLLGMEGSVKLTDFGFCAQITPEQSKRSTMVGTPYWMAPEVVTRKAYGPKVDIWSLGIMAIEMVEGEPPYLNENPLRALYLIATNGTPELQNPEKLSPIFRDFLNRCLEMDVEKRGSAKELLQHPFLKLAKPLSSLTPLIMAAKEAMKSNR
Method: as §1

[14] = biological target: PTK6 (Brk) (Homo sapiens, UniProt Q13882); assay: SelectScreen kinase assay
Chain of PTK6 (Brk) (Q13882 whole entry): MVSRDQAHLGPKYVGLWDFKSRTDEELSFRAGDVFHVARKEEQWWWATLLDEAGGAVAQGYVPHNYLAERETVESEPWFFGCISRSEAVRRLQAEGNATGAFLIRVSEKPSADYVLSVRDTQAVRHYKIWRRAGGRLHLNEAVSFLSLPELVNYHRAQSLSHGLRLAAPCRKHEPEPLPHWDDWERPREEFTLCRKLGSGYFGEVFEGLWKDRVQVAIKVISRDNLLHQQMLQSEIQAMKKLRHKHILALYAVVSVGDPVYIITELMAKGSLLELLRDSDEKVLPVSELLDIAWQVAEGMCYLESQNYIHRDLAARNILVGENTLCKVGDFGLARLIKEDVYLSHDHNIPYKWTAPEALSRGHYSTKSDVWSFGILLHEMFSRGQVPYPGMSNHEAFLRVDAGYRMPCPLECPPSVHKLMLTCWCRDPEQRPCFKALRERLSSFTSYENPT
Method: as §1

[15] = biological target: CDK4/cyclin D1 (Homo sapiens, UniProt P11802); assay: SelectScreen kinase assay; details: for Inhibition at 1 µM (%): CDK4/cyclin D1, Adapta, ATP 10
Chain of CDK4/cyclin D1 (P11802 whole entry): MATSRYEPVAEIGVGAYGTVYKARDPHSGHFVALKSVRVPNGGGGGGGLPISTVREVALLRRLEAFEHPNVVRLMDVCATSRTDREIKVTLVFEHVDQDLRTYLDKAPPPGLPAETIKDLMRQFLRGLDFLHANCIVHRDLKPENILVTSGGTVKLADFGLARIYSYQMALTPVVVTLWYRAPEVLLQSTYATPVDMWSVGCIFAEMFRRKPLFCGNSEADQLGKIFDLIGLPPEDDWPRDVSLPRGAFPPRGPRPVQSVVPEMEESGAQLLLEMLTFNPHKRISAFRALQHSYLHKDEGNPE
Chain of CDK4/cyclin D1 (P24385 whole entry partner): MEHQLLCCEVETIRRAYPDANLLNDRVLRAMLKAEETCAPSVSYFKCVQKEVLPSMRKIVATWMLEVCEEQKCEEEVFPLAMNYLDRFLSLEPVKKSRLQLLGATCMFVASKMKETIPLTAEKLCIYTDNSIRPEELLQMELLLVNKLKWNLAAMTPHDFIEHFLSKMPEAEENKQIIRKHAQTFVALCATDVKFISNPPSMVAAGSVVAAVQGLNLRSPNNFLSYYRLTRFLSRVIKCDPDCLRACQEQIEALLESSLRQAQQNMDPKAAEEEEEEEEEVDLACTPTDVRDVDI
Method: as §1

[16] = biological target: FRK (PTK5) (Homo sapiens, UniProt P42685); assay: SelectScreen kinase assay; details: for Inhibition at 1 µM (%): FRK (PTK5), ZLYTE, ATP Km app
Chain of FRK (PTK5) (P42685 whole entry): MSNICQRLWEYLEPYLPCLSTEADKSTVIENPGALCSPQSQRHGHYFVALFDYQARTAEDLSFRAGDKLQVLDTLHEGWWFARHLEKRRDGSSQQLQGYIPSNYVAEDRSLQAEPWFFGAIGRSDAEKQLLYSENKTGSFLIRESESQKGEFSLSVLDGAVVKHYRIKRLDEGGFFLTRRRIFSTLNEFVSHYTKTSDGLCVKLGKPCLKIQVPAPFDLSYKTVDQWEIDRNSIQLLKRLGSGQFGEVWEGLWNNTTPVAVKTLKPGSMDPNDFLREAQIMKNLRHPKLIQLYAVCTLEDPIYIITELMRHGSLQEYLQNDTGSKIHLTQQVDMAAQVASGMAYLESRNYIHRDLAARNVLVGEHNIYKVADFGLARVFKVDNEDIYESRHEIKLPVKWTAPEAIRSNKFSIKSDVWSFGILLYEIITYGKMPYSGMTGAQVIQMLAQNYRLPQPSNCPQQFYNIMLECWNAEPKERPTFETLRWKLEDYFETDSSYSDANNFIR
Method: as §1

[17] = biological target: MAPK7 (ERK5) (Homo sapiens, UniProt Q13164); assay: SelectScreen kinase assay
Chain of MAPK7 (ERK5) (Q13164 whole entry): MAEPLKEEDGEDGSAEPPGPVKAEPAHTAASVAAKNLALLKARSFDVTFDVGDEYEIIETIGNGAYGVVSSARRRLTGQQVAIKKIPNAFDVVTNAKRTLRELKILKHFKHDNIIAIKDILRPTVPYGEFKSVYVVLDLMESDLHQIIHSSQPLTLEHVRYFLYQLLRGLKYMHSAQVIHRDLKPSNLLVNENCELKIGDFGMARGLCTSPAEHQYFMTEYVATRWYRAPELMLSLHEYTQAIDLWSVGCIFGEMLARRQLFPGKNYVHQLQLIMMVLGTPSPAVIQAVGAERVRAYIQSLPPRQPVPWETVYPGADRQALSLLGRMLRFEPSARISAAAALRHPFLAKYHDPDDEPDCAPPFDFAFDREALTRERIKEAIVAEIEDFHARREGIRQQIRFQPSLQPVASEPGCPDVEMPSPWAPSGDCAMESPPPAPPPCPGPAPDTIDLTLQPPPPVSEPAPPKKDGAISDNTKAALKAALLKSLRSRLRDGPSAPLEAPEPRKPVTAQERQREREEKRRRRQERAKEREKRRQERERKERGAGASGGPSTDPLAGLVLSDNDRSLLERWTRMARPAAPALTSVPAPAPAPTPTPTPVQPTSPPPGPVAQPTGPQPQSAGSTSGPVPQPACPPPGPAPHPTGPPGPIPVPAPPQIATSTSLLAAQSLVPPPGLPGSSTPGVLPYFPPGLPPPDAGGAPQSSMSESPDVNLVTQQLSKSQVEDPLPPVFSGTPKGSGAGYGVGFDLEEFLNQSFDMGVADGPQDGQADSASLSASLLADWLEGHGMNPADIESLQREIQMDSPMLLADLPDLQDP
Method: as §1

[18] = 1 µM, ZLYTE, ATP Km app, listed as WEL028, 1 µM
[19] = read-out: Inhibition at 1 µM (%), 1 µM, ZLYTE, ATP Km app
[20] = 1 h, 1 μM WEL028, 1 h preincubation
[21] = read-out: Inhibition at 1 µM (%)

Chain of PTK2 (FAK) (Q05397 whole entry, species assumed): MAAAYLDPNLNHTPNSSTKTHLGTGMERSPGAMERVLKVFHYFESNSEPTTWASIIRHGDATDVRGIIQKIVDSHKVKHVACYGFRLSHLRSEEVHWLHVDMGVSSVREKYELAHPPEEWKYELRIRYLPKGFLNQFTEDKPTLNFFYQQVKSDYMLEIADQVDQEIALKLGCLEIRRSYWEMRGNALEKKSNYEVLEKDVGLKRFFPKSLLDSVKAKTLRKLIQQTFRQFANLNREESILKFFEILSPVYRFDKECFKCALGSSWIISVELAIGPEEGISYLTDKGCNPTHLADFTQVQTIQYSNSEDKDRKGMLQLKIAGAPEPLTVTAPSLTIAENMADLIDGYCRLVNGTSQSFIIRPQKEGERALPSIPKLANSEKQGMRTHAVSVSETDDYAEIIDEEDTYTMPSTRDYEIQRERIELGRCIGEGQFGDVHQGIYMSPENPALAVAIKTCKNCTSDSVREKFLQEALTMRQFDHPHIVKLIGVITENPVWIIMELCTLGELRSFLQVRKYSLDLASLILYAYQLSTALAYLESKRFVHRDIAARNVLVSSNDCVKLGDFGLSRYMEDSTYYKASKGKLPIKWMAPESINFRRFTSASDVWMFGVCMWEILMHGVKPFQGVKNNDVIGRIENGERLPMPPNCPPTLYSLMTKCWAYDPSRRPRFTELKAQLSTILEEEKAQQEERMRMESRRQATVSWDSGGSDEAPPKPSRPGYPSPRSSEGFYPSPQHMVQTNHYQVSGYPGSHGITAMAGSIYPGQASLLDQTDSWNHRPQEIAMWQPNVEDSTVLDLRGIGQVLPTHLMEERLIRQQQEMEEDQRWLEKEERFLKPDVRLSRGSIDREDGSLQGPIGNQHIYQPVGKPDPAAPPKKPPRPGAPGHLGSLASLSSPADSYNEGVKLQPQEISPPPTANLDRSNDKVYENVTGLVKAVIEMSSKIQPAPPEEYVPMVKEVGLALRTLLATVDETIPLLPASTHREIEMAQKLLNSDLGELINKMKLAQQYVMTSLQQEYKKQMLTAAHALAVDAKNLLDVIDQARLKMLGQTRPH

C#CCOc1ccc(Nc2ncc(Cl)c(Nc3ccccc3NC(=O)C=C)n2)c(OC)c1 [Compound 6]
IC50 [1]: 398 nM
Inhibition at 1 µM (%) [1, 18]: 79%
inhibition at 10 µM ([1]; 1 h, log[inhibitor] (M) -5.00, ZLYTE, ATP Km app): 90%
inhibition at 3.31 µM ([1]; 1 h, log[inhibitor] (M) -5.48, ZLYTE, ATP Km app): 88%
inhibition at 1.12 µM ([1]; 1 h, log[inhibitor] (M) -5.95, ZLYTE, ATP Km app): 78%
inhibition at 0.372 µM ([1]; 1 h, log[inhibitor] (M) -6.43, ZLYTE, ATP Km app): 46%
inhibition at 0.123 µM ([1]; 1 h, log[inhibitor] (M) -6.91, ZLYTE, ATP Km app): 26%
inhibition at 0.0138 µM ([1]; 1 h, log[inhibitor] (M) -7.86, ZLYTE, ATP Km app): 4%
inhibition at 0.00151 µM ([1]; 1 h, log[inhibitor] (M) -8.82, ZLYTE, ATP Km app): 4%
Apparent fold selectivity ([1]; IC50 on that kinase divided by IC50 on FES^S700C): 89 fold
inhibition at 1 µM [1, 19]: 77%
inhibition at 1 µM [2, 20]: 7%
Inhibition at 1 µM (%) ([2]; PI4KA (PI4K alpha), 1 µM, Adapta, ATP 10, listed as WEL028, 1 µM): 3% and 11%
inhibition at 1 µM [3]: -2%
Selectivity window against the residual 354 kinases ([4]; 1 μM screen vs FES^S700C): > 100 fold
Number of kinases with >50% inhibition ([4]; out of 380 tested kinases, 1 μM, 1 h preincubation): 26
inhibition at 1 µM [5, 20]: 13%
Inhibition at 1 µM (%) ([5]; PIK3CG (p110 gamma), 1 µM, Adapta, ATP Km app, listed as WEL028, 1 µM): 18%
inhibition at 1 µM ([5]; read-out: Inhibition at 1 µM (%), PIK3CG (p110 gamma), 1 µM, Adapta, ATP Km app): 9%
Inhibition at 1 µM (%) ([6]; 1 µM, ZLYTE, ATP Km app): 15%
inhibition at 1 µM [6, 20]: 4%
inhibition at 1 µM [7]: 8%
inhibition at 1 µM [8, 20]: 19%
Inhibition at 1 µM (%) ([8]; MST4, 1 µM, ZLYTE, ATP Km app, listed as WEL028, 1 µM): 18%
inhibition at 1 µM ([8]; read-out: Inhibition at 1 µM (%), MST4, 1 µM, ZLYTE, ATP Km app): 21%
inhibition at 1 µM ([9]; 1 h): 5%
inhibition at 1 µM [9, 21]: 5%
inhibition at 1 µM [10, 20]: 10%
Inhibition at 1 µM (%) ([10]; MYLK4, 1 µM, LanthaScreen Binding, listed as WEL028, 1 µM): 14%
inhibition at 1 µM ([10]; read-out: Inhibition at 1 µM (%), MYLK4, 1 µM, LanthaScreen Binding): 7%
inhibition at 1 µM ([11]; 1 h): 1%
inhibition at 1 µM [11, 21]: 1%
inhibition at 1 µM [12, 20]: 0%
Inhibition at 1 µM (%) ([12]; CDK16 (PCTK1)/cyclin Y, 1 µM, LanthaScreen Binding, listed as WEL028, 1 µM): -1%
inhibition at 1 µM [13, 20]: 29%
Inhibition at 1 µM (%) ([13]; PAK2 (PAK65), 1 µM, ZLYTE, ATP Km app, listed as WEL028, 1 µM): 23%
inhibition at 1 µM ([13]; read-out: Inhibition at 1 µM (%), PAK2 (PAK65), 1 µM, ZLYTE, ATP Km app): 35%
Inhibition at 1 µM (%) [14, 18]: 29%
inhibition at 1 µM [14, 20]: 31%
inhibition at 1 µM [14, 19]: 33%
inhibition at 1 µM [15, 20]: -10%
Inhibition at 1 µM (%) [15]: -14%
Inhibition at 1 µM (%) ([15]; listed as WEL028, 1 µM): -6%
inhibition at 1 µM [16, 20]: 7%
Inhibition at 1 µM (%) [16]: 11%
Inhibition at 1 µM (%) ([16]; listed as WEL028, 1 µM): 4%
inhibition at 1 µM [17, 20]: 4%
Inhibition at 1 µM (%) ([17]; MAPK7 (ERK5), 1 µM, ZLYTE, ATP Km app, listed as WEL028, 1 µM): 3%
inhibition at 1 µM ([17]; read-out: Inhibition at 1 µM (%), MAPK7 (ERK5), 1 µM, ZLYTE, ATP Km app): 4%
